Results on five compounds are retold here after BindingDB's records for doi:10.1016/0014-2999(96)00428-1 (Glaxo Research & Development, 1996).

“And” between values parts separate entries of the source, which are not always exact repeats. Equal values may be shown once.

The target in this assay is Hrh3 protein (Rattus norvegicus, UniProt Q5PPG3).
Chain of Hrh3 protein (Q5PPG3 whole entry): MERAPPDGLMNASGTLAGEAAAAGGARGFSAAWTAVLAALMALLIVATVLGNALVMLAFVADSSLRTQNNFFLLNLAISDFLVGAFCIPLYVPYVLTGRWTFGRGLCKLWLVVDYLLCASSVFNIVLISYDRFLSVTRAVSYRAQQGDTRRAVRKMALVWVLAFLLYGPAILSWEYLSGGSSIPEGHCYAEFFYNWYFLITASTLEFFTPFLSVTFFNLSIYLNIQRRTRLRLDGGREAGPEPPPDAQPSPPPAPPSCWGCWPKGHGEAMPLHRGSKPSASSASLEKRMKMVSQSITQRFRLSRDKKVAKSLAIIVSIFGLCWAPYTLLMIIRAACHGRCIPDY

Consider `CN/C([CH-][N+](=O)[O-])=[NH+]\CCSCc1ccc(CN(C)C)o1`, for which the Ki is 5010 nM and > 10000 nM.

Take `Cc1[nH]cnc1CSCCNC(=N)NCCCc1c[nH]cn1` [2-[3-(1H-imidazol-5-yl)propyl]-1-(2-{[(5-methyl-1H-imidazol-4-yl)methyl]sulfanyl}ethyl)guanidine]: the Ki was 19.9 nM and 12.6 nM.

For the compound `NC(=NC1CCCCC1)N1CCC(c2cnc[nH]2)CC1` [GR-168320], the Ki was 0.15 nM and 0.19 nM.

In turn, `CNC(=S)NCCCCc1cnc[nH]1` [1-[4-(1H-imidazol-5-yl)butyl]-3-methylthiourea] yielded a Ki of 63.1 nM.

As for `COc1ccc(CN(CCN(C)C)c2ccccn2)cc1`, the inhibitory constant (Ki) was 7940 nM and > 10000 nM.
